The term IC50 denotes the concentration at which inhibition is half-maximal. High values mean weaker potency, low ones greater potency.

The text below walks through data of publication PMC5390467, “Novel lead structures with both Plasmodium falciparum gametocytocidal and asexual blood stage activity identified from high throughput compound screening” (Malaria Journal, 2017).

Bounds are passed on as bounds.

Data set [1] has as its system P. falciparum NF54 asexual parasites. As to the kind of experiment: asexual parasite growth inhibition assay (SYBR Green). Type of data set: cell-based, Plasmodium falciparum. Particulars: 72 h, mean ± SD, n = 3. As for the experimental part:
(§1) Asexual parasites of P. falciparum strain NF54 were cultured as described previously. Briefly, parasites were maintained in RPMI 1640 medium containing 10% positive human serum + erythrocytes (5% haematocrit), 2.5% sodium bicarbonate and 11 µg/mL gentamicin at 37 °C with 5% CO2, 5% O2 and 90% N2. Gametocyte cultures were set up at 0.1% parasitaemia and on days 9–10 treated with 50 mM N-acetylglucosamine (NAG) to block further asexual growth. Stage III–V gametocytes were isolated by Percoll density gradient centrifugation on day 12 and returned to culture for 24 h before being used in the assay. At the time of the assay over 73% of the gametocytes were stage IV or V (Additional file 1). HepG2 cells (ATCC, cat. no. 77400) were cultured in 175-cm^2 tissue culture flasks with 30 ml growth medium at 37 °C in a 5% CO2 and 5% O2 humidified atmosphere. Growth medium was made with Dulbecco’s Modified Eagle Medium with 10% fetal bovine serum (FBS). Growth medium was replaced every other day and cells were passaged at 75% confluence.
Drug activity on asexual stage parasites was tested using a SYBR Green assay as described previously. Briefly, 2.5 μL/well complete culture medium was dispensed into each well of 1536-well plates using the Multidrop Combi followed by 23 nL compound transferring using the NX-TR Pintool. Parasites were diluted to 0.5% parasitaemia in complete culture medium with 2% haematocrit and drugs diluted in DMSO (≤0.5%). The pre-diluted parasites were dispensed into a 1536-well plate (2.5 μL/well). After 72 h incubation under the standard culture conditions, 5 μL/well of lysis buffer containing SYBR Green I was added to the parasite culture and incubated for 30 min at room temperature. The fluorescence of each well was measured in a fluorescence detection mode (Ex = 490 nm, Em = 520 nm) using a ViewLux plate reader (PerkinElmer).

Data set [2] relates to P. falciparum NF54 gametocytes. As to the kind of experiment: gametocyte viability assay (AlamarBlue). The format is cell-based, Plasmodium falciparum. As to conditions: for IC50: P. falciparum NF54 stage III-V gametocytes, 72 h, AlamarBlue, mean ± SD, n = 3; for Asexual/Gametocyte: ratio of asexual IC50 to gametocyte IC50. As for the experimental part: as §1
Compounds from the Sytravon library (a retired Pharma screening collection that contains a diversity of novel small molecules, with an emphasis on medicinal chemistry-tractable scaffolds) were obtained as powder samples and dissolved in DMSO as […] stock solutions. Compound screening experiments were performed as previously described. In the primary screen, two concentrations for each compound were tested. No technical and biological replicates were involved. In the follow-up confirmation studies, three biological replicates were tested for each compound in both parasite assays. The positive control was 46 µM of Torin 2 and negative control was DMSO. Briefly, 2.5 μL/well incomplete medium was dispensed into each well of 1536-well plates using the Multidrop Combi followed by 23 nL compound transferring using the NX-TR Pintool (WAKO Scientific Solutions, San Diego, CA). Then, 2.5 μL/well of gametocytes was dispensed with a seeding density of 20,000 cells/well using the Multidrop Combi. The assay plates were incubated for 72 h at 37 °C with 5% CO2. After addition of 5 μL/well of 2X AlamarBlue dye (Life Technologies, cat. no. DAL1100), the plates were incubated for 24 h at 37 °C with 5% CO2 and then were read in a fluorescence detection mode (Ex = 525 nm, Em = 598 nm) on a ViewLux plate reader (PerkinElmer).

In a further data set the test system is 468 human kinases. The experiment in a line: human kinase profiling (Kinome scan, DiscoverX), whole panel. Type of data set: binding.
Another data set deals with HepG2 cells. As to the kind of experiment: HepG2 cytotoxicity assay (AlamarBlue). As to conditions: for cytotoxicity at 46 µM: Homo sapiens, read-out: HepG2, IC50 (dash = less than 25% cytotoxicity); for cytotoxicity at 46 µM / HepG2, IC50 (dash = less than 25% cytotoxicity): up to 46 µM. The format is cell-based, human. As for the experimental part:
as §1
Drug activity on HepG2 was tested using an AlamarBlue assay as previously described. Briefly, 5 μL/well of HepG2 cells were dispensed with a seeding density of 1000 cells/well using the Multidrop Combi. 23 nL compound was transferred using the NX-TR Pintool. After 72 h incubation under the standard culture condition, 5 μL/well of 2X AlamarBlue dye was added to the cells, the plates were incubated for 2 h at 37 °C with 5% CO2 and then were read in a fluorescence detection mode (Ex = 525 nm, Em = 598 nm) on a ViewLux plate reader.
Background: Alamar Blue is a resazurin reagent that responds to reducing activity.

On to `CCOCc1cc(CN2CCN(c3ccccc3OC)CC2)c(O)c2ncccc12` [NCGC00114940], for which the IC50 came out at 1.16 ± 0.57 µM in data set [1] (Plasmodium falciparum) and 0.62 ± 0.04 µM in data set [2] (Plasmodium falciparum). Besides, the Asexual/Gametocyte in data set [2] came to 1.87. Also, the “number of human kinases interacting (Interactions Mapped, 468 Assays Tested)” value in the data set with 468 human kinases (10 μM) worked out at 0. In addition, the “S-Score(35)” value in the data set with 468 human kinases (10 µM, 468 assays) is given as 0. Moreover, the “binding to human kinases, in words” value in the data set with 468 human kinases (10 µM, 468 human kinases) is “did not affect the activity of any”. Moreover, the cytotoxicity at 46 µM in the data set with HepG2 cells (HepG2 cells, 72 h, AlamarBlue) is less than 25%.

Consider `CC(C)c1ccc(Nc2c(-c3ccccn3)nc3ccccn23)cc1` [NCGC00104490], for which the figures for the IC50 in data set [1] (Plasmodium falciparum) and in data set [2] (Plasmodium falciparum) were 2.22 ± 0.35 µM and 1.29 ± 0.29 µM, respectively. For the same molecule, in data set [2], the Asexual/Gametocyte is 1.72. The cytotoxicity at 46 µM in the data set with HepG2 cells (HepG2 cells, 72 h, AlamarBlue) was less than 25%.

With `CC(C)(C)OC(=O)N1CCC(c2c(C(=O)NCCN3CCC(Cc4ccccc4)CC3)cnn2-c2ccccc2)CC1` [NCGC00127017], the IC50 in data set [1] amounted to 3.44 ± 0.24 µM; in data set [2], 11.9 ± 2.05 µM; with HepG2 cells (HepG2 cells, 72 h, AlamarBlue, titration 0.001 to 46 µM, mean ± SD, n = 3), 25.3 µM. The Asexual/Gametocyte in data set [2] was 0.29. For the same molecule, the “maximum response, HepG2 cytotoxicity” value in the data set with HepG2 cells (titration 0.001 to 46 µM) is given as 87.6%.

Regarding `COc1ccc(NC(=O)c2ccc3c(c2)N(Cc2cccc(Cl)c2)C(=O)c2ccccc2[S+]3[O-])cc1Cl` (stereo not drawn) [NCGC00140326], the results for the IC50 in data set [1] and in data set [2] were 13.8 ± 0.82 µM and approximately 60 µM, respectively. Moreover, the Asexual/Gametocyte in data set [2] is recorded as 0.23. Moreover, in the data set on HepG2 cells (HepG2 cells, 72 h, AlamarBlue), the “HepG2, IC50 (dash = less than 25% cytotoxicity)” value is recorded as “– (Indicates compounds with less than 25% cytotoxicity at up to 46 µM)”.

As for `CCCCc1ccc(Nc2cc(C)nc(-n3nc(C)cc3C)n2)cc1` [NCGC00134132], the IC50 was 2.41 ± 0.32 µM in data set [1] (Plasmodium falciparum) and 1.29 ± 0.32 µM in data set [2] (Plasmodium falciparum). Besides, the Asexual/Gametocyte in data set [2] worked out at 1.87. Also, the cytotoxicity at 46 µM in the data set on HepG2 cells (HepG2 cells, 72 h, AlamarBlue) is less than 25%.

On to `Cc1ccc(Nc2cc(C)nc(-n3nc(C)cc3C)n2)cc1` [NCGC00134154], for which the IC50 in data set [1] (Plasmodium falciparum) was 2.83 ± 0.31 µM; in data set [2] (Plasmodium falciparum), 1.19 ± 0.34 µM. In addition, in data set [2], the Asexual/Gametocyte came to 2.38. In addition, in the data set on HepG2 cells (HepG2 cells, 72 h, AlamarBlue), the cytotoxicity at 46 µM is less than 25%.

Molecule `O=C(NCc1ccc(Cl)cc1)C1CCCN(C(=O)c2cnn(-c3ccc(F)cc3)c2-n2cccc2)C1` (stereo not drawn) [NCGC00124960] had an IC50 in data set [1] of 35.6 ± 1.77 µM. For the same molecule, in data set [2], the IC50 was approximately 60 µM and the Asexual/Gametocyte is listed as 0.59. Also, in the data set on HepG2 cells (HepG2 cells, 72 h, AlamarBlue), the “HepG2, IC50 (dash = less than 25% cytotoxicity)” value is “– (Indicates compounds with less than 25% cytotoxicity at up to 46 µM)”.

As for `Cc1cccc2nc(-c3ccccn3)c(Nc3ccccc3)n12` [NCGC00106055], in data set [1], the IC50 stood at 4.18 ± 0.68 µM. In addition, in data set [2], the IC50 is 3.98 ± 1.12 µM and the Asexual/Gametocyte came to 1.05. Also, in the data set on HepG2 cells (HepG2 cells, 72 h, AlamarBlue), the “HepG2, IC50 (dash = less than 25% cytotoxicity)” value is listed as “– (Indicates compounds with less than 25% cytotoxicity at up to 46 µM)”.
